Data: patent US20180161425A1, “NOVEL PROTEIN STRUCTURE USED FOR EFFICIENT ANTIBODY PRODUCTION IN IMMUNIZATION” (priority 2014, published 2018)
Values joined by “and” are separate entries in the source; they are usually repeats but may differ in a detail not shown here. Identical values can stand only once.

Key:
MDCK cells = format: cell-based
MCP-1 = tested on: MCP-1; set-up: species or system mice; conditions: mouse, in vivo

Substance	cell binding and internalization of FITC labeled peptide (MDCK cells)	cell binding activity when compared to AH2 peptide (MDCK cells) [%]	further results
DRLFFKCIYRRFKYGLKRG [AH5]	did not bind to the membrane as well as AH2, they did all bind and were internalized to the cell at different levels	–	–
DRLFFKCIYRRLKYGLKRG [AH3]	did not bind to the membrane as well as AH2, they did all bind and were internalized to the cell at different levels	–	–
DRLFFKCVYRLFKHGLKRG [AH4]	did not bind to the membrane as well as AH2, they did all bind and were internalized to the cell at different levels	–	–
KRLFKLSYIETRYMASDK [SWS-AH]	–	24	–
MHSATAAQLETLRLFKFP [ANMV-AH]	–	15	–
MPRLFKIYAKNYFLTYPN [TYLCV-AH]	–	25	–
RTLSLLRRLFFKSDLGFL [AHV-AH]	–	40	–
flagellin	–	–	plasma MCP-1 level (MCP-1): 3000 pg/mL and 2600 pg/mL
